Entries after “also recorded” stand apart in the source; their conditions may differ. Like-named read-outs stand apart in the source and are kept apart here.
Experiments:
[1] = system: PAF receptor; conditions: literature report; cited from earlier work
[2] = system: PAF induced platelet aggregation (human platelets); assay: PAF induced platelet aggregation assay; assay type: cell-based; conditions: for PAF antagonist activity (in words): in vitro
Protocol: In vitro experiments have been conducted to determine the PAF and 5-lipoxygenase inhibitory activity of a variety of synthesized, neolignan derivative compounds. In particular, the novel compounds are either 2,4-diaryl-1,3-dithiolanes or futoenone derivatives. PAF antagonist activity was determined according to the method of Shen et al., in Methods of Ezymology, Vol. 187, 447-449 (1990), and that article is herein incorporated by reference. The 5-lipoxygenase inhibitory activity was determined according to an assay discussed below.
The following outlines a platelet aggregation assay procedure. Blood is obtained from human volunteers who have not ingested aspirin or steroid drugs for ten days and is stored with a 3.8% trisodium citrate anticoagulant. Heparin is not used as the anticoagulant since it interferes with platelet aggregation. Citrated blood is centrifuged at 220 g for 10 min. at room temperature to obtain platelet-rich plasma (PRP). The platelet count is determined and is adjusted to […]. Platelet-poor plasma (PPP) is prepared by centrifuging PRP at 1000 g for 20 min. to pelletize the platelets. PPP is used to calibrate the aggregometer. Washed platelet suspension (WPS) is prepared from PRP by underlayering the latter with Ficoll-Paque (9:2, v/v) and centrifuging at 750 g for 15 min. at room temperature. The platelets form a band between the plasma and the separation medium and are carefully collected and suspended in Tyrode's solution (in mM: NaCl, 137; KCl, 2.7; NAHCO3, 11.9; NaH2 -PO4, 0.42; MgCl2, 1.0; CaCl2, 1.0; HEPES, 5.0; and dextrose, 1 g/liter, with 0.25% BSA, w/v, pH 7.4). Prostacyclin (PGI2) (1 ng/ml) can be added to the suspension to prevent platelet activation; however, it should be understood that the inhibitory activity of PGI2 disappears completely 10 min. from the time of addition at room temperature. The suspension is then spun at 1000 g for 10 min. and the pellet is resuspended in Tyrode's buffer for platelet aggregation. The suspensions are maintained at 37° C. and stirred constantly at 1000 revolutions per min (rpm). A known amount of PAF, such as 0.11 μM PAF, is added to the suspension three to five minutes after the addition of the potential PAF antagonists (the synthesized compounds). […] To obtain the IC50 value, varying concentrations of a potential antagonist need to be added to the test suspensions with the percentage inhibition being determined for each concentration of the antagonist, and the IC50 value is obtained from a plot of the percentage inhibition versus concentration of the antagonist.

[3] = PAF induced platelet aggregation

Structure (SMILES) | PAF receptor antagonism (in words) [1] | PAF antagonist activity (in words) [2, 3] | other results
COc1cc(C2CCC(c3cc(OC)c(OC)c(OC)c3)O2)cc(OC)c1OC [L-652,731] | potent PAF receptor antagonists | – | –
CCCOc1c(OC)cc(C2CCC(c3cc(OC)c(OC)c(OC)c3)O2)cc1S(C)(=O)=O [L-659,989] | potent PAF receptor antagonists | – | –
COc1cc(C2CSC(c3cc(OC)c(OC)c(OC)c3)S2)cc(OC)c1OC (stereo not drawn) [compound 1, Cis and trans-2,4-bis-(3,4,5-trimethoxyphenyl)-1,3-dithiolane] | – | – | IC50 ([2]; Homo sapiens, PAF induced platelet aggregation, read-out: IC50 value, PAF-induced platelet aggregation): < 1 µM
COC1=C[C@]23C[C@H](C[C@H](c4ccc5c(c4)OCO5)[C@H]2C)OC3=CC1=O [futoenone] | – | posesses PAF antagonist activity; also recorded: potent PAF antagonist activity | IC50 ([2]; human platelet assay in PRP, 0.1 μM PAF, read-out: IC50 value for platelet aggregation induced by 0.1 μM PAF): ~13.6 µM
C=CCC1=C[C@@]2(OC)C(=CC1=O)O[C@H](c1ccc(OC)c(OC)c1)[C@H]2C [kadsurenone] | potent, specific and competitive inhibitor of PAF at the receptor level | – | –
COc1cc(C2CSC(c3cc(OC)c(OC)c(OC)c3)O2)cc(OC)c1OC (stereo not shown) [oxathiolane (F')] | – | much weaker antagonist of PAF-induced platelet aggregation than the corresponding dithiolane compound | –

Reference: US5639782A, “Neolignan derivatives as platelet activating factor receptor antagonists and 5-lipoxygenase inhibitors” (Center for Innovative Technology, priority 1994, dated 1997)
